According to patent US20220213144A1, “HALOGENATED ANTIMICROBIAL PEPTOIDS” (priority 2019, published 2022):
Converted amounts (≈) assume the structure as drawn. Like-named read-outs stand apart in the source and are kept apart here. Blank lines part the entries; values can stand above or below the compound they belong to. Square brackets hold non-standard residues; d marks the D form. Peptide text beside a SMILES is read from it. Gly(Nα-4-Cl-benzyl) = O=C(O)CNCc1ccc(Cl)cc1; N(4-Br-benzyl)Gly = O=C(O)CNCc1ccc(Br)cc1; N(4-F-Bzl)Gly = O=C(O)CNCc1ccc(F)cc1; NBzl(4-I)Gly = O=C(O)CNCc1ccc(I)cc1; Nphe = O=C(O)CNCc1ccccc1; Nlys = NCCCCNCC(=O)O

Legend:
seven bacterial strains = test: MIC by broth microdilution, whole panel of bacterial strains; type: cell-based; settings: in words
Experimental: All 36 peptoids were tested against seven bacterial strains. These included five Gram-positive strains (Staphylococcus aureus ATCC 25923 and ATCC 29213, methicillin-resistant Staphylococcus aureus USA 300, methicillin-restant Staphylococcus epidermidis ET-024 and ATCC 51625) and two Gram-negative strains (Escherichia coli ATCC 25922 and Pseudomonas aeruginosa PA01) (see TABLE 1).
(§1) Bacterial growth inhibition was determined by using broth microdilution according to the Clinical Laboratory Standards Institute. The antibacterial activity of peptoids was tested against S. aureus ATCC 25923, ATCC29213, and methicillin resistant S. aureus USA 300, methicillin resistant S. epidermidis ATCC 51625, a biofilm producing methicillin resistant S. epidermidis […], P. aeruginosa Pa01 (H103), and E. coli ATCC 25922. Bacteria, grown on agar plates for 18 hours at 37° C., were diluted to ˜1×10^8 CFU/mL in Mueller-Hinton Broth II (MHB II). Twofold serial dilutions of peptoids in MHB II were inoculated with the bacteria to achieve a final concentration of 5×10^5 CFU/mL in polypropylene 96 U-well microtiter plates (Corning™ 3897; ThermoFisher Scientific, Roskilde), followed by incubation at 37° C. in ambient air for 18 hours. The MIC values were determined as the lowest concentration showing no visible bacterial growth. Experiments were performed twice (in technical triplicates) on different days.

[1] = tested on: methicillin-restant S. epidermidis ET-024; type: cell-based, Staphylococcus epidermidis; settings: for MIC against MRSE: strain not named; for increase in activity against MRSE: 8-mer and 10-mer, compared to unsubstituted controls 10 and 19
Experimental: as §1

[2] = Small angle X-ray scattering, critical aggregation concentration from fit; type: physicochemical; settings: for critical aggregation concentration (CAC): SAXS fit analysis, bundle model
Experimental: SAXS experiments of the 10-mer peptoids were performed on the automated BM29 bioSAXS beamline at the European Synchrotron Radiation Facility (ESRF) in Grenoble, France. The data was obtained using an energy of 12.5 keV and a detector distance of 2.87 m, covering a q range (q=4π sin(θ/2)/λ), where θ is the scattering angle and λ is the X-ray wavelength) of about 0.0047 Å-1 to 0.5 Å-1. The data set was calibrated to an absolute intensity scale using water as a primary standard. Samples (40 μL) were run through a capillary using the flow mode of the automated sample changer. SAXS data was collected in ten successive frames of 0.5 s each to monitor radiation damage, and the data reduction was done using the standard tool at BM29.
The SAXS experiments on the fully iodinated 6-, 8-, and 12-mers to determine the CAC of the compounds were performed using a Bruker NANOSTAR equipped with a microfocus X-ray source (IμS Cu, Incoatec, Germany) and a VANTEC-2000 detector. Raw scattering data was calibrated to absolute intensity scale using water as a primary standard and radially averaged in order to obtain the 1D scattered intensity profile as a function of the scattering vector, with a wavelength of 1.54 Å.
where fagg is the fraction of peptoid chains aggregated in bundles, allowing for calculation of a CAC from ϕCAC=ϕ−(fagg*ϕ).

S. aureus ATCC 25923 = type: cell-based, Staphylococcus aureus; settings: for increase in activity against S. aureus: compared to the unsubstituted control peptoid of same length; for MIC against S. aureus: strain not named
Experimental: as §1

[3] = tested on: methicillin-restant S. epidermidis ATCC 51625; type: cell-based, Staphylococcus epidermidis; settings: for MIC against MRSE: text b77, 6-mers, strain not named, values fit ATCC 51625
Experimental: as §1

[4] = 8-mers and 10-mers, values fit ET-024
[5] = Table 2, 10-mers, SAXS at ESRF, model fit
[6] = Table 3, fully iodinated peptoids, bundle model fit

critical aggregation concentration (CAC) [2]: 0.5 mg/mL
CAC [2, 5]: 0.4 mg/mL
CAC [2, 6]: 0.5 mg/mL
Structure (SMILES): NCCCCNCC(=O)N(CC(=O)N(CCCCN)CC(=O)N(CC(=O)N(CCCCN)CC(=O)N(CC(=O)N(CCCCN)CC(=O)N(CC(=O)N(CCCCN)CC(=O)N(CC(N)=O)Cc1ccc(I)cc1)Cc1ccc(I)cc1)Cc1ccc(I)cc1)Cc1ccc(I)cc1)Cc1ccc(I)cc1 [Compound 23] (H-[Nlys][NBzl(4-I)Gly][Nlys][NBzl(4-I)Gly][Nlys][NBzl(4-I)Gly][Nlys][NBzl(4-I)Gly][Nlys][NBzl(4-I)Gly]-NH2; N-terminus assumed)

CAC [2, 5]: >5 mg/mL
Structure (SMILES): NCCCCNCC(=O)N(CC(=O)N(CCCCN)CC(=O)N(CC(=O)N(CCCCN)CC(=O)N(CC(=O)N(CCCCN)CC(=O)N(CC(=O)N(CCCCN)CC(=O)N(CC(N)=O)Cc1ccc(Cl)cc1)Cc1ccc(Cl)cc1)Cc1ccc(Cl)cc1)Cc1ccc(Cl)cc1)Cc1ccc(Cl)cc1 [Compound 21] (H-[Nlys][Gly(Nα-4-Cl-benzyl)][Nlys][Gly(Nα-4-Cl-benzyl)][Nlys][Gly(Nα-4-Cl-benzyl)][Nlys][Gly(Nα-4-Cl-benzyl)][Nlys][Gly(Nα-4-Cl-benzyl)]-NH2; N-terminus assumed)

CAC [2, 5]: >5 mg/mL
Structure (SMILES): NCCCCNCC(=O)N(CC(=O)N(CCCCN)CC(=O)N(CC(=O)N(CCCCN)CC(=O)N(CC(=O)N(CCCCN)CC(=O)N(CC(=O)N(CCCCN)CC(=O)N(CC(N)=O)Cc1ccc(F)cc1)Cc1ccccc1)Cc1ccc(F)cc1)Cc1ccccc1)Cc1ccc(F)cc1 [Compound 24] (H-[Nlys][N(4-F-Bzl)Gly][Nlys][Nphe][Nlys][N(4-F-Bzl)Gly][Nlys][Nphe][Nlys][N(4-F-Bzl)Gly]-NH2)

critical aggregation concentration (CAC) [2]: 0.4 mg/mL
CAC [2, 6]: 0.4 mg/mL
Structure (SMILES): NCCCCNCC(=O)N(CC(=O)N(CCCCN)CC(=O)N(CC(=O)N(CCCCN)CC(=O)N(CC(=O)N(CCCCN)CC(=O)N(CC(=O)N(CCCCN)CC(=O)N(CC(=O)N(CCCCN)CC(=O)N(CC(N)=O)Cc1ccc(I)cc1)Cc1ccc(I)cc1)Cc1ccc(I)cc1)Cc1ccc(I)cc1)Cc1ccc(I)cc1)Cc1ccc(I)cc1 [Compound 32] (H-[Nlys][NBzl(4-I)Gly][Nlys][NBzl(4-I)Gly][Nlys][NBzl(4-I)Gly][Nlys][NBzl(4-I)Gly][Nlys][NBzl(4-I)Gly][Nlys][NBzl(4-I)Gly]-NH2; N-terminus assumed)

CAC [2, 5]: >5 mg/mL
Structure (SMILES): NCCCCNCC(=O)N(CC(=O)N(CCCCN)CC(=O)N(CC(=O)N(CCCCN)CC(=O)N(CC(=O)N(CCCCN)CC(=O)N(CC(=O)N(CCCCN)CC(=O)N(CC(N)=O)Cc1ccc(F)cc1)Cc1ccc(F)cc1)Cc1ccc(F)cc1)Cc1ccc(F)cc1)Cc1ccc(F)cc1 [Compound 20] (H-[Nlys][N(4-F-Bzl)Gly][Nlys][N(4-F-Bzl)Gly][Nlys][N(4-F-Bzl)Gly][Nlys][N(4-F-Bzl)Gly][Nlys][N(4-F-Bzl)Gly]-NH2; N-terminus assumed)

CAC [2, 5]: >5 mg/mL
Structure (SMILES): NCCCCNCC(=O)N(CC(=O)N(CCCCN)CC(=O)N(CC(=O)N(CCCCN)CC(=O)N(CC(=O)N(CCCCN)CC(=O)N(CC(=O)N(CCCCN)CC(=O)N(CC(N)=O)Cc1ccc(I)cc1)Cc1ccccc1)Cc1ccc(I)cc1)Cc1ccccc1)Cc1ccc(I)cc1 [Compound 27] (H-[Nlys][NBzl(4-I)Gly][Nlys][Nphe][Nlys][NBzl(4-I)Gly][Nlys][Nphe][Nlys][NBzl(4-I)Gly]-NH2)

CAC [2, 5]: >5 mg/mL
Structure (SMILES): NCCCCNCC(=O)N(CC(=O)N(CCCCN)CC(=O)N(CC(=O)N(CCCCN)CC(=O)N(CC(=O)N(CCCCN)CC(=O)N(CC(=O)N(CCCCN)CC(=O)N(CC(N)=O)Cc1ccc(Cl)cc1)Cc1ccccc1)Cc1ccc(Cl)cc1)Cc1ccccc1)Cc1ccc(Cl)cc1 [Compound 25] (H-[Nlys][Gly(Nα-4-Cl-benzyl)][Nlys][Nphe][Nlys][Gly(Nα-4-Cl-benzyl)][Nlys][Nphe][Nlys][Gly(Nα-4-Cl-benzyl)]-NH2)

Second part, the compound before the results:

Structure (SMILES): NCCCCNCC(=O)N(CC(=O)N(CCCCN)CC(=O)N(CC(=O)N(CCCCN)CC(=O)N(CC(=O)N(CCCCN)CC(=O)N(CC(=O)N(CCCCN)CC(=O)N(CC(N)=O)Cc1ccccc1)Cc1ccccc1)Cc1ccccc1)Cc1ccccc1)Cc1ccccc1 [Compound 19] (H-[Nlys][Nphe][Nlys][Nphe][Nlys][Nphe][Nlys][Nphe][Nlys][Nphe]-NH2; N-terminus assumed)
potency against the selected bacterial strains (seven bacterial strains): inactive
MIC against MRSE [1, 4]: 128 µg/mL (≈ 91.8 µM)
CAC [2, 5]: >5 mg/mL

Structure (SMILES): NCCCCNCC(=O)N(CC(=O)N(CCCCN)CC(=O)N(CC(=O)N(CCCCN)CC(=O)N(CC(N)=O)Cc1ccc(I)cc1)Cc1ccc(I)cc1)Cc1ccc(I)cc1 [Compound 5] (H-[Nlys][NBzl(4-I)Gly][Nlys][NBzl(4-I)Gly][Nlys][NBzl(4-I)Gly]-NH2; N-terminus assumed)
increase in activity against S. aureus (S. aureus ATCC 25923): more than 64 fold
MIC against S. aureus (S. aureus ATCC 25923): 8 µg/mL (≈ 6.55 µM)
increase in activity against MRSE ([3]; 6-mer, compared to unsubstituted control 1): 256 fold
MIC against MRSE [3]: 2 µg/mL (≈ 1.64 µM)
critical aggregation concentration (CAC) [2]: 2.8 mg/mL
CAC [2, 6]: 2.8 mg/mL

Structure (SMILES): NCCCCNCC(=O)N(CC(=O)N(CCCCN)CC(=O)N(CC(=O)N(CCCCN)CC(=O)N(CC(N)=O)Cc1ccccc1)Cc1ccccc1)Cc1ccccc1 [Compound 1] (H-[Nlys][Nphe][Nlys][Nphe][Nlys][Nphe]-NH2; N-terminus assumed)
potency against the selected bacterial strains (seven bacterial strains): inactive
MIC against MRSE [3]: 512 µg/mL (≈ 607 µM)

Structure (SMILES): NCCCCNCC(=O)N(CC(=O)N(CCCCN)CC(=O)N(CC(=O)N(CCCCN)CC(=O)N(CC(=O)N(CCCCN)CC(=O)N(CC(N)=O)Cc1ccc(I)cc1)Cc1ccc(I)cc1)Cc1ccc(I)cc1)Cc1ccc(I)cc1 [Compound 14] (H-[Nlys][NBzl(4-I)Gly][Nlys][NBzl(4-I)Gly][Nlys][NBzl(4-I)Gly][Nlys][NBzl(4-I)Gly]-NH2; N-terminus assumed)
increase in activity against MRSE [1]: 128 fold
MIC against MRSE [1]: 2 µg/mL (≈ 1.23 µM)
critical aggregation concentration (CAC) [2]: 1.4 mg/mL
CAC [2, 6]: 1.4 mg/mL

Structure (SMILES): NCCCCNCC(=O)N(CC(=O)N(CCCCN)CC(=O)N(CC(=O)N(CCCCN)CC(=O)N(CC(=O)N(CCCCN)CC(=O)N(CC(=O)N(CCCCN)CC(=O)N(CC(N)=O)Cc1ccc(Br)cc1)Cc1ccc(Br)cc1)Cc1ccc(Br)cc1)Cc1ccc(Br)cc1)Cc1ccc(Br)cc1 [Compound 22] (H-[Nlys][N(4-Br-benzyl)Gly][Nlys][N(4-Br-benzyl)Gly][Nlys][N(4-Br-benzyl)Gly][Nlys][N(4-Br-benzyl)Gly][Nlys][N(4-Br-benzyl)Gly]-NH2; N-terminus assumed)
increase in activity against S. aureus (S. aureus ATCC 25923): > 256 fold
MIC against S. aureus (S. aureus ATCC 25923): 2 µg/mL (≈ 1.12 µM)
increase in activity against MRSE [1]: 128 fold
MIC against MRSE [1, 4]: 1 µg/mL (≈ 0.559 µM)
critical aggregation concentration (CAC) [2]: 2.3 mg/mL
CAC [2, 5]: 2.3 mg/mL

Structure (SMILES): NCCCCNCC(=O)N(CC(=O)N(CCCCN)CC(=O)N(CC(=O)N(CCCCN)CC(=O)N(CC(=O)N(CCCCN)CC(=O)N(CC(=O)N(CCCCN)CC(=O)N(CC(=O)N(CCCCN)CC(=O)N(CC(N)=O)Cc1ccccc1)Cc1ccccc1)Cc1ccccc1)Cc1ccccc1)Cc1ccccc1)Cc1ccccc1 [Compound 28] (H-[Nlys][Nphe][Nlys][Nphe][Nlys][Nphe][Nlys][Nphe][Nlys][Nphe][Nlys][Nphe]-NH2; N-terminus assumed)
potency against the selected bacterial strains (seven bacterial strains): inactive

Structure (SMILES): NCCCCNCC(=O)N(CC(=O)N(CCCCN)CC(=O)N(CC(=O)N(CCCCN)CC(=O)N(CC(=O)N(CCCCN)CC(=O)N(CC(N)=O)Cc1ccccc1)Cc1ccccc1)Cc1ccccc1)Cc1ccccc1 [Compound 10] (H-[Nlys][Nphe][Nlys][Nphe][Nlys][Nphe][Nlys][Nphe]-NH2; N-terminus assumed)
potency against the selected bacterial strains (seven bacterial strains): inactive
MIC against MRSE [1, 4]: 256 µg/mL (≈ 229 µM)
